Data from US11427586B2, “1,2,4-oxadiazole derivatives as liver X receptor agonists” (NOVARTIS AG, priority 2019, dated 2022).
Where two headings read alike, the source gives them in different places.

What was measured:
SZ95 sebocytes = experiment: Sentinel Lipid Assay (SLA), desaturation index in SZ95 sebocytes; format: cell-based; conditions: Homo sapiens, 72 h; for EC50: read-out: SLA EC50
Method: Sentinel Lipid Assay (SLA)
The sentinel lipid assay was used quantify the change in the global desaturation index in SZ95 sebocytes upon administration of certain LXR agonist compounds provided herein. The assay measures a smaller subset of lipid analytes in meibum (termed “sentinel lipids”) which would model the global changes the population of both saturated and desaturated lipids in the cells. In order to define this smaller subset of lipids, a complete lipid profile was recorded on dose response curves (eight levels from 4 nM to 10 uM) of Compounds 1-72. An elastic net regression model was applied separately to both the saturated and desaturated lipids to determine the minimum combination of coefficients and analytes, which could be used to adequately model the total population of lipids. The elastic net model was able to reduce the behavior of 425 lipids to 11 lipids and the correlation between the desaturation indices observed using the complete set of lipids with from the 11 sentinel lipids was 0.96.
A medium throughput assay was created using this reduced set of sentinel lipids. A single batch is defined as triplicate examples of three unique plates (i.e., a single batch of cells is used to create nine plates for LC-MSMS analysis). Lipids were extracted from the cells using a 1:1 mixture of methylene chloride/methanol containing 10 nM of deuterated standards of triglycerides, which are used as internal standards for quantitating the lipid abundance. The lipids were separated prior to mass spectrometric analysis using a five minute HPLC gradient. The abundance of the sentinel lipids and the internal standards are measured using multiple reaction monitor mode (MRM) on a triple quadrupole mass spectrometer. The data was transformed from total ion current to nmoles/10^6 cells, which are multiplied by the coefficients from the elastic net model to determine the effective desaturated and saturated content, and therein the desaturation index of the dosed cells. In order to compare compounds from multiple batches with one another, the measure raw desaturation index was normalized by dividing it by the desaturation index of the DMSO dosed cells, and all data was assessed as the fraction by which the compound increases the desaturation index above 1.
SZ95 (immortalized human sebaceous gland cells) cells were seeded in Greiner bio-one 96-well polypropylene plates that were pre-treated with 50 μg/mL Human Plasma Fibronectin (Thermo Fisher Scientific) at a density of 10^4 cells/135 μl. Cells were incubated in a humidified incubator with 5% CO2 at 37° C. overnight. Test compounds were diluted at a ratio of 1:3 and added to cells at final concentrations starting from 10 μM. 2-(3-(3-((2-chloro-3-(trifluoromethyl)benzyl)(2,2-diphenylethyl)amino)propoxy)phenyl)acetic acid was used as a positive control reference compound in each plate. Cells in the assay plate were incubated in a humidified incubator with 5% CO2 at 37° C. for 72 h.
Culture medium was removed from the cells and cells in culture plates were washed with ice cold phosphate buffered saline three times. Plates were heat sealed and stored in a −80° C. freezer prior to Sentinel lipid assay. The Amax value refers to the percent EC50 of the tested compound compared to a reference compound, 2-(3-(3-((2-chloro-3-(trifluoromethyl)benzyl)(2,2-diphenylethyl)amino)propoxy)phenyl)acetic acid.

SCD1 = experiment: Measurement of SCD1 expression in SZ95-SCD1-HiBit cells (HiBiT assay); format: cell-based; conditions: Homo sapiens; for EC50: read-out: HiBit EC50
Excerpt: Measurement of SCD1 Expression in SZ95-SCD1-HiBit Cells
SCD1 expression levels in SZ95 cells were quantitated using the HiBiT system (Promega) in which a small peptide sequence (SmBiT) with a larger protein (LgBiT) reconstitutes luciferase activity and can generate a luminescent signal used for quantitation. SZ95-SCD1-HiBit cells were generated by editing the SCD1 gene of SZ95 cells resulting in the addition of an 8 amino acid linker sequence (gssggssg, SEQ ID NO:1) followed by an 11-amino acid SmBiT sequence (vsgwrlfkkis, SEQ ID NO:2) at the carboxy-terminus of the SCD1 protein. The gRNA targeting sequence used was […] (SEQ ID NO: 3) and the SCD1 insertion oligonucleotide encoding the SmBiT sequence was:
SZ95-SCD1-HiBit cells were seeded in 384-well cell culture white plates at a density of 3000 cells/30 μl. Water was added to edge wells to avoid evaporation. Cells were incubated in a humidified incubator with 5% CO2 at 37° C. overnight. Tested compounds were diluted at a ratio of 1:3 in DMSO using an Agilent BRAVO Automated Liquid Handling Platform and, after further serial dilutions, added to cells at final concentrations starting from 18 μM. 2-(3-(3-((2-chloro-3-(trifluoromethyl)benzyl)(2,2-diphenylethyl)amino)propoxy)phenyl)acetic acid was used as a reference compound in each plate. Cells in the assay plate were incubated in a humidified incubator with 5% CO2 at 37° C. for 48 h.
The assay plates were removed from the incubator and allowed to equilibrate to room temperature. Nano-Glo® HiBiT Detection Reagent (Promega; a mixture of Nano-Glo HiBiT Detection Buffer, Nano-Glo HiBiT Detection Substrate, and LgBiT protein, according to the manufacturer's instructions) was added into assay plates, at a volume equal to cell culture medium in each well. Plates were placed on an orbital shaker at a speed of 300-600 rpm for 10 min at room temperature, and read on an EnVision Plate Reader using luminescence detection with a 1 second read time.
The assay measures the increase in SCD1 protein production in vitro. Amax refers to the percent EC50 of the tested compound compared to a reference compound, 2-(3-(3-((2-chloro-3-(trifluoromethyl)benzyl)(2,2-diphenylethyl)amino)propoxy)phenyl)acetic acid.

[1] = normalized Amax based on the reference compound Amax of 100%, read-out: SLA Normalized Amax
[2] = SZ95 cells, desaturation index, lowest dose used 4.6 nM
[3] = SZ95 cells, compared to reference compound, read-out: SLA Amax
[4] = 48 h, normalized Amax based on the reference compound Amax of 100%, read-out: HiBit Normalized Amax
[5] = SZ95-SCD1-HiBit cells, 48 h, SCD1 protein production, luminescence, initial dilution 1:3 in DMSO
[6] = SZ95-SCD1-HiBit cells, 48 h, compared to reference compound, read-out: HiBit Amax
[7] = footnote a: initial dilution for the compound 1:100 in assay medium rather than 1:3 in DMSO

EC50 (SZ95 sebocytes; [2]) [nM]	EC50 (SCD1; [5]) [nM]	EC50 (SCD1; [7]) [nM]	SMILES	Emax (SZ95 sebocytes; [1]) [%]	Emax (SZ95 sebocytes; [3]) [%]	Emax (SCD1; [4]) [%]	Emax (SCD1; [6]) [%]	Emax (SZ95 sebocytes; read-out: SLA Amax) [%]	EC50 (SZ95 sebocytes) [nM]	Emax (SZ95 sebocytes; read-out: SLA Normalized Amax) [%]
≤ 4.6	0.496	–	CC1(C)C(=O)N(Cc2nc(-c3ccc(OCC(C)(C(F)(F)F)C(F)(F)F)c(C(F)(F)F)c3)no2)C(=O)N1CCC1CCOCC1 [Compound 1, 5,5-dimethyl-1-(2-(tetrahydro-2H-pyran-4-yl)ethyl)-3-((3-(4-(3,3,3-trifluoro-2-methyl-2-(trifluoromethyl)propoxy)-3-(trifluoromethyl)phenyl)-1,2,4-oxadiazol-5-yl)methyl)imidazolidine-2,4-dione]	87.1	83.6	91.7	87.2	–	–	–
≤ 4.6	1.5	–	CCCC1(C)C(=O)N(Cc2nc(-c3ccc(Oc4ccccc4S(=O)(=O)CC(C)C)c(C(F)(F)F)c3)no2)C(=O)N1CCN1CCOCC1 (stereo not drawn) [Compound 2, 3-((3-(4-(2-(isobutylsulfonyl)phenoxy)-3-(trifluoromethyl)phenyl)-1,2,4-oxadiazol-5-yl)methyl)-5-methyl-1-(2-morpholinoethyl)-5-propylimidazolidine-2,4-dione]	190	182	95.2	90.5	–	–	–
≤ 4.6	1.24	–	CC(C)CS(=O)(=O)c1ccccc1Oc1ccc(-c2noc(CN3C(=O)N(CCN4CCOCC4)C4(CCCCC4)C3=O)n2)cc1C(F)(F)F [Compound 3, 3-((3-(4-(2-(isobutylsulfonyl)phenoxy)-3-(trifluoromethyl)phenyl)-1,2,4-oxadiazol-5-yl)methyl)-1-(2-morpholinoethyl)-1,3-diazaspiro[4.5]decane-2,4-dione]	117	112	78.5	74.7	–	–	–
≤ 4.6	–	–	CC(C)CS(=O)(=O)c1ccccc1Oc1ccc(-c2noc(CN3C(=O)N(CCC4CCOCC4)C(C)(C)C3=O)n2)cc1C(F)(F)F [Compound 4, 3-((3-(4-(2-(isobutylsulfonyl)phenoxy)-3-(trifluoromethyl)phenyl)-1,2,4-oxadiazol-5-yl)methyl)-5,5-dimethyl-1-(2-(tetrahydro-2H-pyran-4-yl)ethyl)imidazolidine-2,4-dione]	152	146	–	–	–	–	–
–	–	255	CC(C)CS(=O)(=O)c1ccccc1Oc1ccc(-c2noc(CN3C(=O)NC(C)(C)C3=O)n2)cc1C(F)(F)F [Compound 50a, 3-((3-(4-(2-(isobutylsulfonyl)phenoxy)-3-(trifluoromethyl)phenyl)-1,2,4-oxadiazol-5-yl)methyl)-5,5-dimethylimidazolidine-2,4-dione]	–	–	70.5	67	–	–	–
≤ 4.6	–	–	CC1(C)C(=O)N(Cc2nc(-c3ccc(Oc4ccccc4S(=O)(=O)C4CCOC4)c(C(F)(F)F)c3)no2)C(=O)N1CCC1CCOCC1 (stereo not drawn) [Compound 59, 5,5-dimethyl-1-(2-(tetrahydro-2H-pyran-4-yl)ethyl)-3-((3-(4-(2-((tetrahydrofuran-3-yl)sulfonyl)phenoxy)-3-(trifluoromethyl)phenyl)-1,2,4-oxadiazol-5-yl)methyl)imidazolidine-2,4-dione]	140	135	–	–	–	–	–
–	–	–	CC(C)CS(=O)(=O)c1ccccc1Oc1ccc(-c2noc(CN3C(=O)N(CCN4CCOCC4)C(C)(CN(C)C)C3=O)n2)cc1C(F)(F)F (stereo not drawn) [Compound 60, 5-((dimethylamino)methyl)-3-((3-(4-(2-(isobutylsulfonyl)phenoxy)-3-(trifluoromethyl)phenyl)-1,2,4-oxadiazol-5-yl)methyl)-5-methyl-1-(2-morpholinoethyl)imidazolidine-2,4-dione]	–	–	–	–	170	≤ 4.6	177
9.7	–	–	CC1(C)C(=O)N(Cc2nc(-c3ccc(Oc4ccccc4S(=O)(=O)CCN(CCO)CCO)c(C(F)(F)F)c3)no2)C(=O)N1CCN1CCOCC1 [Compound 62, 3-((3-(4-(2-((2-(bis(2-hydroxyethyl)amino)ethyl)sulfonyl)phenoxy)-3-(trifluoromethyl)phenyl)-1,2,4-oxadiazol-5-yl)methyl)-5,5-dimethyl-1-(2-morpholinoethyl)imidazolidine-2,4-dione]	154	148	–	–	–	–	–
–	–	4.6	CC(C)CS(=O)(=O)c1ccccc1Oc1ccc(-c2noc(CN3C(=O)N(CCN4CCOCC4)C4(CCN(C(=O)CCC(=O)O)CC4)C3=O)n2)cc1C(F)(F)F [Compound 68, 4-(3-((3-(4-(2-(isobutylsulfonyl)phenoxy)-3-(trifluoromethyl)phenyl)-1,2,4-oxadiazol-5-yl)methyl)-1-(2-morpholinoethyl)-2,4-dioxo-1,3,8-triazaspiro[4.5]decan-8-yl)-4-oxobutanoic acid]	–	–	84	79.9	–	–	–
–	0.665	–	O=C(O)CCCCC(=O)N1CCC2(CC1)C(=O)N(Cc1nc(-c3ccc(Oc4ccccc4C(F)(F)F)c(C(F)(F)F)c3)no1)C(=O)N2CCN1CCOCC1 [Compound 69, 6-(1-(2-morpholinoethyl)-2,4-dioxo-3-((3-(3-(trifluoromethyl)-4-(2-(trifluoromethyl)phenoxy)phenyl)-1,2,4-oxadiazol-5-yl)methyl)-1,3,8-triazaspiro[4.5]decan-8-yl)-6-oxohexanoic acid]	–	–	76.4	72.7	–	–	–
99.2	–	–	CC1(C)NC(=O)N(Cc2nc(-c3ccc(Oc4ccccc4SC(F)(F)F)c(C(F)(F)F)c3)no2)C1=O [Compound 70, 5,5-dimethyl-3-((3-(3-(trifluoromethyl)-4-(2-((trifluoromethyl)thio)phenoxy)phenyl)-1,2,4-oxadiazol-5-yl)methyl)imidazolidine-2,4-dione]	67.4	64.7	–	–	–	–	–
29.8	–	–	CN1C(=O)N(Cc2nc(-c3ccc(Oc4ccccc4C(F)(F)F)c(C(F)(F)F)c3)no2)C(=O)C1(C)C [Compound 72, 1,5,5-trimethyl-3-((3-(3-(trifluoromethyl)-4-(2-(trifluoromethyl)phenoxy)phenyl)-1,2,4-oxadiazol-5-yl)methyl)imidazolidine-2,4-dione]	82.8	79.5	–	–	–	–	–
